Experimental data published in patent US7112683B2, “Cyclic sulfone containing retroviral protease inhibitors” (priority 1992, dated 2006).
Like-named read-outs stand apart in the source and are kept apart here.

Key:
HIV = assay: EC50 of Table 1 (antiviral activity, method not described); assay type: cell-based
HIV protease = HIV protease (Human immunodeficiency virus type 1 group M subtype B, UniProt P04585); assay: HIV protease enzyme assay (fluorogenic substrate 2-aminobenzoyl-Ile-Nle-Phe(p-NO2)-Gln-ArgNH2); assay type: biochemical
Procedure: The compounds of the present invention are effective HIV protease inhibitors. […] The calculated IC50 indicates the concentration providing inhibition of 50%, i.e., the concentration at which the inhibitor compound reduces enzyme activity by 50%). The enzyme method is described below. The substrate is 2-aminobenzoyl-Ile-Nle-Phe(p-NO2)-Gln-ArgNH2. The positive control is MVT-101 [Miller, M. et al, Science, 246, 1149 (1989)]. The assay conditions are as follows: • Assay buffer: 20 mM sodium phosphate, pH 6.4 • 20% glycerol • 1 mM EDTA • 1 mM DTT • 0.1% CHAPS
The above described substrate is dissolved in DMSO, then diluted 10 fold in assay buffer. Final substrate concentration in the assay is […].
HIV protease is diluted in the assay buffer to a final concentration of glycerol is 18%. The test compound is dissolved in DMSO and diluted in DMSO to 10× the test concentration; […] of the enzyme preparation is added, the materials mixed and then the mixture is incubated at ambient temperature for 15 minutes. The enzyme reaction is initiated by the addition of […] of substrate. The increase in fluorescence is monitored at 4 time points (0, 8, 16 and 24 minutes) at ambient temperature. Each assay is carried out in duplicate wells.

[1] = TD50 of Table 1 (toxic dose, method not described)
[2] = HIV protease, pH 6.4, ambient temperature, read-out: IC50
[3] = IC50 (range given for the listed examples), inhibition of the HIV enzyme, range over Examples 4, 4a, 7, 8 and 9
[4] = IC50, HIV protease, pH 6.4, ambient temperature

Row | Molecule | EC50 (HIV) [µM] | IC50 (HIV protease; [2]) [µM] | TD50 [1] | IC50 (HIV protease; [3]) [µM] | IC50 (HIV protease; [4]) [µM] | IC50 (HIV protease; inhibition of the HIV enzyme, range over Examples 4, 4a, 7, 8 and 9, read-out: IC50 (range given for the listed examples)) [µM]
1 | 2H-thiopyran-3-carboxamide, N-(3-[[[(1,1-dimethylethyl amino]-carbonyl](3-methylbutyl) amino]-2-hydroxy-1-(phenylmethyl) propyl]tetrahydro,-1,1-dioxide. [Example 4] | 0.063 | 0.013 | 308,000 nM | – | – | –
2 | CC(C)CCN(C[C@@H](O)[C@H](Cc1ccccc1)NC(=O)C1CCCS(=O)(=O)C1)C(=O)NC(C)(C)Cn1ccnc1 (some centres unmarked) [Example 4a] | – | – | – | 0.003 to 0.14 | 0.046 | –
3 | CC(C)(C)NC(=O)[C@@H]1C[C@@H]2CCCC[C@@H]2CN1C[C@@H](O)[C@H](Cc1ccccc1)NC(=O)C1CCCS(=O)(=O)C1 (some centres unmarked) [Example 7] | – | – | – | 0.003 to 0.14 | 0.003 | –
4 | CC(C)CCN(C[C@@H](O)[C@H](Cc1ccccc1)NC(=O)C1CCCS(=O)(=O)C1)S(=O)(=O)c1ccccc1 (some centres unmarked) [Example 8] | – | – | – | 0.003 to 0.14 | 0.004 | –
5 | CC(C)CN(CC(O)C(Cc1ccccc1)NC(=O)C1CCCS(=O)(=O)C1)S(=O)(=O)NC(C)(C)C (centres unmarked) [Example 9] | – | 0.14 | – | – | – | 0.003 to 0.14
